Experimental data reported in patent publication US7045550B2, “Polyamines and analogs for protecting cells during cancer chemotherapy and radiotherapy” (Wisconsin Alumni Research Foundation, priority 2001, dated 2006).

Tests used:
[1] = test system: rat pups challenged with cytoxan; assay: Cytoxan (CTX)-induced alopecia model in rat pups, topical polyamine effector; assay type: in vivo, Sprague Dawley rat; conditions: for efficacy in the rat alopecia and/or dermatitis model: Examples 6, 7 and 8
Procedure: (§1) Induction of alopecia by cytoxan (CTX). Lactating Sprague Dawley mother rats with rat pups were purchased from Harlan Sprague Dawley (Indianapolis, Ind.). The mother rats were given food and water ad libitum. The rats pups were tested in the model of chemotherapy-induced alopecia described by Hussein A. M. et al., Science: 249, 1564 (1990). Cytoxan (CTX), a chemotherapeutic widely used in the treatment of cancer, was used to induce alopecia in the rats. A common side effect of cytoxan in patients is alopecia. Cytoxan and polyamine effector compounds were purchased from Sigma Chemicals Co. (St. Louis, Mo.). To produce CTX-induced alopecia, 7 to 10 day old rat pups were injected i.p. with 35 mg/kg of CTX prepared in phosphate-buffered saline. To produce reproducible CTX induced alopecia, we first tested several concentrations (35, 40, 45 ug/gm body weight) of CTX in phosphate-buffered saline (PBS), which was injected i.p. in 7–10 day old pups. Seven to ten days after CTX treatment the pups were examined to determine the degree of hair loss. The density of hair on the pups was then determined. 100% hair density represents that found on the untreated control pups while 0% represented pups with total hair loss. It was observed that 35 ug/gm of CTX was sufficient to induce 100% hair loss approximately 7 days after cytoxan challenge, and this concentration was used in subsequent experiments.
Different types of polyamine effector agents were tested in this model. The effectors were prepared in a delivery vehicle, consisting of from 60–100% ethanol in water, depending on the solubility of the compound. The compounds in ethanol/water solution from 50–150 μl in volume were topically administered to the backs of the pups once per day before and after CTX challenge. Using a micropipette, the formulation was applied to approximately 2 cm^2 section of skin to the backs of the rat pups. Specifically, the pups were treated once daily for the 4–5 days before CTX challenge, once on the day of CTX challenge and once daily for 5 days afterwards. Control groups consisted of pups receiving only delivery vehicle. Control groups treated with delivery vehicle were tested as part of every treatment study. Two or more animals were tested per group in both the control and test groups.
Approximately 7 to 10 days after CTX treatment, the pups were evaluated for alopecia. Hair loss was evaluated using a modified alopecia-scoring index described by Chen G. et al., Int. J. Cancer: 75, 303 (1998). A score of 0=no hair loss; a score of 1=10–30% hair loss; a score of 2=40–60% hair loss; a score of 3=70–90% hair loss; and a score of 4=100% hair loss.
as §1, with “It was observed that 35 ug/gm of CTX was sufficient to induce 100% hair loss approximately 7 days after cytoxan challenge, and this concentration was used in subsequent experiments.” left out

DNA = conditions: in vitro; Basu et al. 1993; cited from earlier work
[2] = test system: rats exposed to radiation; assay: Radiation-induced dermatitis model in rats (15 Gy), topical polyamine effector; assay type: in vivo, Sprague Dawley rat; conditions: for Avg dermatitis score: 15 Gy, vehicle 3.0
Procedure: To determine if treatment with a polyamine effector could effectively prevent radiation-induced dermatitis, adult rats were topically treated with several different classes of polyamine effectors before and after radiation treatment. Rats were exposed to medically relevant levels of radiation that could induce clinical radiation dermatitis. Sprague Dawley rats (Harlen Spraque Dawley) at 4–6 weeks-old were anesthetized with sodium pentobarbital at 40 mg/kg body weight (Sigma, St. Louis, Mo.) prior to radiation exposure. A defined, depilated area on the backs of rats was irradiated using a Mark I, Model 30, Cs 137 irradiator (J. L. Sheppard & Associates). Briefly, the back was stripped of hair to expose the skin using a 1:1 rosin/beeswax mixture. The rest of the body was protected from radiation exposure using a lead shield. A dose response study was initially preformed to reproduce relevant dermatitis that matched the Grade (I–IV) scale used to score the severity of radiation-induced dermatitis in the clinical setting. Radiation doses of 5–7 Gray (1 Gray (Gy)=[…]) produced Grade I dermatitis within 8–10 days. Radiation doses of 7–10 Gy produced Grade II dermatitis within 8–10 days. After 8–10 days, severe radiation dermatitis was produced at 20–25 Gy (Grade III dermatitis) or at 30–35 Gy (Grade IV). Radiation dermatitis of Grade II–III was considered most clinically relevant, so a radiation challenge dose of 15 Gy in the rats was used in subsequent treatment experiments. The stripped back region on the rats was treated topically with 10–50 mM polyamine effector once daily for 5 days before and 5 days after radiation challenge.
Different classes (natural polyamines and biosynthetic inhibitors) of polyamine effector agents were tested in this model. The polyamine effector compounds were purchased from Sigma Chemicals Co. (St. Louis, Mo.), except Vaniqa, a commercially available cream containing DFMO at 13.9% ([…]). The effectors were prepared in a delivery vehicle, consisting of from 60–100% ethanol in water, depending on the solubility of the compound. The compounds in ethanol/water solution from 100–150 μl in volume were topically administered to the stripped region. Rats treated with only the delivery vehicle served as controls. Eight to ten days post-radiation challenge, the rats were evaluated for dermatitis using a modified scoring scale described by Masuda K. et al. Int. J. Radiation Oncol. Biol. Phys: 12, 1645 (1986). Dermatitis score of 0=normal, 1=slight redness, scaly skin with no focal lesions, 2=moderate redness, breakdown of larger area, some small focal lesions, 3=skin very red, breakdown of most of the irradiated area, large ulcers and crusty lesions, 4=skin very red, breakdown of the entire irradiated area, severe exudation and large crusty lesions.
To determine if treatment with a non-natural polyamine analog could effectively prevent radiation-induced dermatitis, adult rats were topically treated with a polyamine analog before and after radiation treatment. Rats were exposed to medically relevant levels of radiation that could induce clinical radiation dermatitis. Sprague Dawley rats (Harlan Spraque Dawley) at 4–6 weeks old were anesthetized with sodium pentobarbital at 40 mg/kg body weight (Sigma, St. Louis, Mo.) prior to radiation exposure. A defined, depilated area on the backs of rats was irradiated using a Mark I, Model 30, Cs 137 irradiator (J. L. Sheppard & Associates). Briefly, back hair was removed to expose the skin by using Oster electric clippers followed by a safety razor. The rest of the body was protected from radiation exposure using a lead shield. A dose response study was initially preformed to reproduce relevant dermatitis that matched the Grade (I–IV) scale used to score the severity of radiation-induced dermatitis in the clinical setting. Radiation doses of 5–7 Gray (1 Gray (Gy)=[…]) produced Grade I dermatitis within 8–10 days. […]

[3] = test system: rat pups challenged with cytarbine; assay: Cytarbine-induced alopecia model in rat pups; assay type: in vivo; conditions: treatment (1 mM), vehicle 4.0
Text: (§2) Alopecia was induced in rat pups by Cytoxan, cytarbine, doxorubicin and radiation, according to the methods described in the previous examples. Polyamines from three different structural families, obtained from two different sources, gave excellent results in animal alopecia models for Cytoxan, cytarbine and doxorubicin.

[4] = test system: rat pups challenged with doxorubicin; assay: Doxorubicin-induced alopecia model in rat pups; assay type: in vivo; conditions: vehicle 4.0
Text: as §2

[5] = 1 mM topical (Example 1), scale 0-4, vehicle 4.0
[6] = 5 mM topical (Example 1), scale 0-4, vehicle 4.0
[7] = 20 mM topical, scale 0-4, vehicle 4.0
[8] = Example 1, concentrations tested
[9] = 10 mM topical, scale 0-4, vehicle 4.0
[10] = 50 mM topical, scale 0-4, vehicle 4.0
[11] = Example 6, 5 mM in 70% ethanol, topical, scale 0-4, vehicle 4.0
[12] = 10 mM in ethanol/water, scale 0-4
[13] = 50 mM in ethanol/water, scale 0-4

CCNCCCNCCCNCCCNCC [BE-3-3-3, N1, N11-bis (ethyl) norspermine]
Avg Alopecia Score [1, 5]: 2.7 | Avg Alopecia Score [1, 6]: 2.3 | Avg Alopecia Score [1, 7]: 1.7 | Alopecia Score +/- SEM ([1]; Expt. 1, 1 mM, vehicle 4.0 +/- 0.0): 3.5 +/− 0.7 | Alopecia Score +/- SEM ([1]; Expt. 1, 10 mM, vehicle 4.0 +/- 0.0): 1.5 +/− 0.7 | Alopecia Score +/- SEM ([1]; Expt. 2, 1 mM, vehicle 3.5 +/- 0.7): 2.5 +/− 0.3 | Alopecia Score +/- SEM ([1]; Expt. 2, 10 mM, vehicle 3.5 +/- 0.7): 0.25 +/− 0.3 | Alopecia Score +/- SEM ([1]; Expt. 3, 1 mM, vehicle 4.0 +/- 0.0): 2.7 +/− 0.4 | Alopecia Score +/- SEM ([1]; Expt. 3, 10 mM, vehicle 4.0 +/- 0.0): 2.0 +/− 0.3 | Avg Alopecia Score ([1]; Table 15, several data sets at multiple concentrations): 0.3–1.5

C[C@](N)(CCCN)C(=O)O [Alpha-Methyl ornithine, reference compound]
Avg Alopecia Score [1, 6]: 4.0 | Avg Alopecia Score [1, 7]: 4.0 | effect on CTX-induced alopecia [1, 8]: did not prevent hair loss

CCNCCCCNCCCCNCCCCNCCCCNCC [BE-4-4-4-4, 3,8,13,18,23-Pentaazapentacosane]
DNA binding and aggregation (DNA): both binds DNA and aggregates it

NCCCCNCCCN [Spermidine]
Avg Alopecia Score [1, 9]: 2.0 | Avg Alopecia Score [1, 10]: 3.5

NCCCCCN [Cadaverine]
Avg Alopecia Score [1, 6]: 4.0 | Avg Alopecia Score [1, 10]: 2.5

CCNCCCNCC1CC1CNCCCNCC (stereo not drawn) [SL-11038]
efficacy in the rat alopecia and/or dermatitis model ([1]; 5 mM): showed efficacy | Avg Alopecia Score [1, 11]: 3.5

Cl.NCCC[C@](N)(C(=O)O)C(F)F (racemic) [DFMO, DL-Alpha Difluoromethylornithine HCl, reference compound]
Avg dermatitis score [2, 12]: 2.5 | Avg Alopecia Score [1, 5]: 4.0 | Avg Alopecia Score [1, 6]: 2.0 | Avg Alopecia Score [1, 9]: 2.0 | Avg Alopecia Score [1, 7]: 3.5 | effect on CTX-induced alopecia ([1]; Example 1, 5–10 mM): effectively prevented alopecia

NC(=NCCC[C@H](N)C(=O)O)NO [NOHA, NG-hydroxy-arginine]
Avg Alopecia Score [1, 6]: 2.75

NCCCNCCSP(=O)(O)O [amifostine, S-2-(3-aminopropylamino) ethylphoshorothioic acid, reference compound]
radioprotective activity ([2]; radiation-induced dermatitis assay, as compared with putrescine): good radioprotective activity

CCNCCCNCC1CCC1CNCCCNCC (stereo not drawn) [SL-11044]
Avg Alopecia Score [1, 11]: 2.5

CNCCCNCC#CCNCCCNC [SL-11092]
efficacy in the rat alopecia and/or dermatitis model ([1]; 5 mM): showed efficacy | Avg Alopecia Score ([1]; Table 10, treatment (1 mM), vehicle 4.0): 0.0 | Avg Alopecia Score ([1]; Table 15, cytoxan-induced, re-screening summary): 0.0

CCNCCCCNCCCCNCCCCNCCCCNC/C=C/CNCCCCNCCCCNCCCCNCCCCNCC [SL-11144]
Avg Alopecia Scores [3]: 3.0 | Avg Alopecia Score [4]: 0.0 | activity in both the alopecia and dermatitis models ([1]; 5 mM, versus naturally-occurring polyamines or simple polyamine analogs): overall greater activity

NCCCNCCCCNCCCN [Spermine]
Avg dermatitis score [2, 13]: 2.8 | Avg Alopecia Score [1, 7]: 3.0 | Avg Alopecia Score [1, 10]: 2.0 | Avg Alopecia Score ([1]; 100 mM topical once daily in ethanol/water, scale 0 (no hair loss) to 4 (100% hair loss), vehicle 4.0): 0.0

NCCCCN [Putrescine]
Avg dermatitis score [2, 13]: 3.0 | Avg Alopecia Score ([1]; 2 mM topical, scale 0-4, vehicle 4.0): 3.0 | Avg Alopecia Score [1, 6]: 2.5 | Avg Alopecia Score [1, 9]: 2.0 | Avg Alopecia Score [1, 10]: 1.5

CCNCCCCNCCCCNCCCCNCCCCNCCO [SL-11141]
efficacy in the rat alopecia and/or dermatitis model ([1]; 5 mM): showed efficacy | effectiveness at preventing alopecia after CTX treatment ([1]; Example 6, 5 mM): less effective | Avg Alopecia Score [1, 11]: 3.3

N=C(N)NCCCCN [Agmatine]
Avg dermatitis score [2, 12]: 1.8 | Avg dermatitis score ([2]; 20 mM in ethanol/water, scale 0 (normal) to 4): 2.0 | Avg Alopecia Score [1, 5]: 3.0 | Avg Alopecia Score [1, 9]: 3.0 | effect on CTX-induced alopecia [1, 8]: reduced, but did not prevent alopecia

CCNCCCCNCCCCNCCCCNCC [BE-4-4-4, 1N,14N-Bisethylhomospermine]
DNA binding and aggregation (DNA): binds to DNA in vitro but does not aggregate it

CCNCCCCNCC#CCNCCCCNCC [SL-11103]
efficacy in the rat alopecia and/or dermatitis model ([1]; 5 mM): showed efficacy

NCCCNCCCN [Norspermidine]
Avg Alopecia Score [1, 6]: 4.0 | Avg Alopecia Score [1, 10]: 2.0

CCNCCCNCC#CCNCCCNCC [SL-11091]
Avg Alopecia Score [1, 11]: 3.0
